Drawing on US20250340569A1, “INHIBITORS OF KIF18A AND USES THEREOF” (Insilico Medicine IP Limited, priority 2023, published 2025), this text covers IC50 for 51 molecules.

In the assay the test system is OVCAR-3. Put plainly: OVCAR3 CTG assay. Format: cell-based. The note with it: CellTiter-Glo, 6 days incubation. An excerpt:
Example B2: OVCAR3 CTG Assay
• a) Preparation of complete medium: Added FBS and appropriate additives according to the information sheet provided by the vendor. Mix gently. • b) Checked the cell name and complete medium and passage number marked on the flask. For adherent cell lines, refer to c to k. For suspension cell lines, refer to g to k. • c) Removed and discarded culture medium using a vacuum pump. • d) Briefly rinsed the cell layer with 0.25% (w/v) Trypsin-0.038% (w/v) EDTA solution to remove all traces of serum that contains trypsin inhibitor. • e) Added 3.0 ml of Trypsin-EDTA solution to flask and observed cells under an inverted microscope until cell layer is dispersed. • f) Added 9.0 ml of complete growth medium and aspirated cells by gently pipetting. • g) Transfered the cell suspension to a centrifuge tube and centrifuged at 1000 rpm for 4 minutes. • h) Discarded the supernatant using a vacuum pump. • i) Added appropriate volume of complete medium. Suspended the cell pellet by gently pipetting. • j) Counted the cell numbers with Vi-cell XR and adjusted cells to appropriate density. • k) Added 190 μL of cell suspension to 96-well opaque-walled clear bottom plates according to the planned plate layout and placed the plates in the CO2 incubator overnight.
2) Compound Stock Preparation:
• a) Plate preparation of testing articles:
The compounds were dissolved in DMSO to prepare 10 mM stock solution. The start working concentration (2 mM) was prepared with DMSO.
b) Staurosporine Plate Preparation:
0.4 mM Staurosporine was prepared in DMSO at working concentration.
The 20× compound containing medium was prepared according to the plate map. 10 μL of 20× compound containing medium was added into each well of the assay plates. Centrifuged at 1000 rpm for 1 minute. The total dilution was 200-fold.
3) Cells were Incubated with the Compounds for 6 Days at 5% CO2, 37° C.
Assay Measurement for CTG Assay
1) Preparation of Reagents
• a) Thawed the CellTiter-Glo buffer and equilibrated to room temperature prior to use. • b) Equilibrated the lyophilized CellTiter-Glo substrate to room temperature prior to use. • c) Transfered the appropriate volume of CellTiter-Glo buffer into the amber bottle containing CellTiter-Glo substrate to reconstitute the lyophilized enzyme/substrate mixture. This formed the CellTiter-Glo reagent. • d) Mixed by gently vortexing, swirling or by inverting the contents to obtain a homogeneous solution. The CellTiter-Glo substrate went into solution easily in less than one minute.
• a) Observed the cell morphology under an inverted microscope after corresponding treatment. • b) Equilibrated the plate and its contents to room temperature for approximately 30 minutes. • c) Added 100 μL of CellTiter-Glo reagent to the assay plate by Multidrop Combi instrument. • d) Mixed contents for 10 minutes on an orbital shaker to induce cell lysis. • e) Allowed the plate to incubate at room temperature for 10 minutes to stabilize luminescent signal. • f) Pasted the clear bottom with white back seal and record luminescence with Envision. The settings should be: Luminescence, measurement time 0.1 s.
(In ATP-based viability assays light output follows the ATP content of the culture.)

`O=C1Nc2cccc(n2)N2CCO[C@@H](COCC3(C(F)(F)F)CCN(CC3)c3cc(NS(=O)(=O)CCO)ncc31)C2` (stereo in doubt) [EX92-B]: the IC50 (Homo sapiens, OVCAR-3, 144 h) is less than 10 nM. Take `Cc1cc2nc(n1)N1CCO[C@@H](COCC3(C(F)(F)F)CCN(CC3)c3cc(NS(=O)(=O)CCO)ccc3C(=O)N2)C1` (stereo in doubt) [EX96-B]: the IC50 (Homo sapiens, OVCAR-3, 144 h) was in the range of 10 to 100 nM. Still for that read-out and setting: as for `CC12CCN(CC1)c1cc(S(=O)(=O)NC(C)(C)C)ccc1C(=O)Nc1cccc(n1)OCCCOC2` [EX07], the figure is 10 to 100 nM; as for `CC12CCN(CC1)c1cc(S(=O)(=O)NC(C)(C)C)ccc1C(=O)Nc1ccc(=O)n(n1)CCCCOC2` [EX14], 10 to 100 nM.

`Cc1cc2nc(n1)NCC(F)(F)COCC1(C)CCN(CC1)c1cc(NS(=O)(=O)CCO)ccc1C(=O)N2` [EX28] came in with an IC50 (Homo sapiens, OVCAR-3, 144 h) of 10 to 100 nM. Same read-out and setting: under `Cc1cc2nc(n1)NCCCOCC1(C)CCN(CC1)c1nc(NC(C)(C)CO)ccc1C(=O)N2` [EX29] stands 100 to 1000 nM; under `Cc1cc2nc(n1)N(C)CCCOCC1(C(F)(F)F)CCN(CC1)c1cc(S(=O)(=O)NC(C)(C)C)ccc1C(=O)N2` [EX30], 10 to 100 nM; under `Cc1cc2nc(n1)NC[C@H](C(F)(F)F)COCC1(C)CCN(CC1)c1cc(NS(=O)(=O)CCO)ccc1C(=O)N2` [EX32-A], 10 to 100 nM.

Turning to `Cc1cc2nc(n1)NC[C@@H](C(F)(F)F)COCC1(C)CCN(CC1)c1cc(NS(=O)(=O)CCO)ccc1C(=O)N2` [EX32-B], the IC50 (Homo sapiens, OVCAR-3, 144 h) lay in the range of 10 to 100 nM. The same measure, in the same setting: under `CC12CCN(CC1)c1cc(NS(=O)(=O)CCO)ccc1C(=O)Nc1cc(C(F)(F)F)nc(n1)NCCCOC2` [EX39] stands 10 to 100 nM. `Cc1cc2nc(n1)N(C)CCCOCC1(C3CC3)CCN(CC1)c1cc(NS(=O)(=O)CCO)ccc1C(=O)N2` [EX41] gave an IC50 (Homo sapiens, OVCAR-3, 144 h) of 100 to 1000 nM. Same read-out and setting: as for `Cc1cc2nc(n1)NCC(C)COCC1(C#N)CCN(CC1)c1cc(NS(=O)(=O)CCO)ccc1C(=O)N2` (stereo not drawn) [EX42], the figure is 10 to 100 nM; as for `Cc1cc2nc(n1)NCC1(CC1)COCC1(C(F)(F)F)CCN(CC1)c1cc(NS(=O)(=O)CCO)ccc1C(=O)N2` [EX43], less than 10 nM. On the same count and under the same terms, under `[2H]C([2H])([2H])N1CCCOCC2(C(F)(F)F)CCN(CC2)c2cc(NS(=O)(=O)CCO)ccc2C(=O)Nc2cc(C)nc1n2` [EX44] stands 10 to 100 nM; under `CO[C@H]1CNc2nc(C)cc(n2)NC(=O)c2ccc(NS(=O)(=O)CCO)cc2N2CCC(C(F)(F)F)(CC2)COC1` [EX46-A], 10 to 100 nM. The same measure, in the same setting: as for `CO[C@@H]1CNc2nc(C)cc(n2)NC(=O)c2ccc(NS(=O)(=O)CCO)cc2N2CCC(C(F)(F)F)(CC2)COC1` [EX46-B], the figure is 10 to 100 nM; as for `[2H]C([2H])([2H])N1CCCCOCC2(C(F)(F)F)CCN(CC2)c2cc(NS(=O)(=O)CCO)ccc2C(=O)Nc2cc(C)nc1n2` [EX47], 1000 to 10000 nM. Take `O=C1NCCOCC2(C(F)(F)F)CCN(CC2)c2cc(NS(=O)(=O)CCO)ccc2C(=O)Nc2cccc1n2` [EX49]: the IC50 (Homo sapiens, OVCAR-3, 144 h) is 100 to 1000 nM.

`Cc1cc2nc(n1)NC/C=C\COCC1(C(F)(F)F)CCN(CC1)c1cc(NS(=O)(=O)CCO)ccc1C(=O)N2` [EX51] came in with an IC50 (Homo sapiens, OVCAR-3, 144 h) of 10 to 100 nM. On the same count and under the same terms, under `Cc1cc2nc(n1)NC/C=C/COCC1(C(F)(F)F)CCP(=O)(CC1)c1cc(NS(=O)(=O)CCO)ccc1C(=O)N2` [EX52] stands 1000 to 10000 nM; under `Cc1cc2nc(n1)NC1CC(C1)OCC1(C(F)(F)F)CCN(CC1)c1cc(NS(=O)(=O)CCO)ccc1C(=O)N2` [EX53], 10 to 100 nM. The molecule `Cc1cc2nc(n1)NC1CC(C1)OCC1(C(F)(F)F)CCN(CC1)c1cc(NS(=O)(=O)CCO)ccc1C(=O)N2` [EX54] yielded an IC50 of 10 to 100 nM. Take `CC1CNc2cccc(n2)NC(=O)c2ccc(NS(=O)(=O)CCO)cc2N2CCC(C(F)(F)F)(CC2)COC1` (stereo not drawn) [EX56]: the IC50 (Homo sapiens, OVCAR-3, 144 h) was 10 to 100 nM. Same read-out and setting: as for `[2H]C([2H])([2H])N1CCCCCC2(C(F)(F)F)CCN(CC2)c2cc(NS(=O)(=O)CCO)ccc2C(=O)Nc2cccc1n2` [EX60], the figure is 10 to 100 nM; as for `[2H]C([2H])([2H])N1CCCOCC2(C(F)(F)F)CCN(CC2)c2cc(NS(=O)(=O)CCO)ccc2C(=O)Nc2ccc(F)c1n2` [EX61], 10 to 100 nM; as for `CN1CCCOCC2(C(F)(F)F)CCN(CC2)c2cc(NS(=O)(=O)CCO)ccc2C(=O)Nc2cccc1n2` [EX62], 10 to 100 nM. As for `[2H]C([2H])([2H])N1CCCCC2(C(F)(F)F)CCN(CC2)c2cc(NS(=O)(=O)CCO)ccc2C(=O)Nc2cccc1n2` [EX63], where the note is “Homo sapiens, OVCAR-3, 144 h”, the IC50 was 100 to 1000 nM. On the same count and under the same terms, under `O=C1Nc2ccc(=O)n(n2)CCCCCCC2(C(F)(F)F)CCN(CC2)c2cc(NS(=O)(=O)CCO)ccc21` [EX64] stands 10 to 100 nM; under `O=C1Nc2ccc(=O)n(n2)CCCCCC2(C(F)(F)F)CCN(CC2)c2cc(NS(=O)(=O)CCO)ccc21` [EX65], 100 to 1000 nM; under `O=C1Nc2cccc(n2)NC/C=C\COCC2(C(F)(F)F)CCN(CC2)c2cc(NS(=O)(=O)CCO)ccc21` [EX66], 10 to 100 nM. Take `O=C1Nc2cccc(n2)NCC2(CC2)COCC2(C(F)(F)F)CCN(CC2)c2cc(NS(=O)(=O)CCO)ccc21` [EX68]: under “Homo sapiens, OVCAR-3, 144 h”, the IC50 was in the range of 10 to 100 nM. The same measure, in the same setting: as for `[2H]C([2H])([2H])N1CCCOCC2(C(F)(F)F)CCN(CC2)c2cc(S(=O)(=O)NC(C)(C)C)ccc2C(=O)Nc2cccc1n2` [EX69], the figure is 10 to 100 nM; as for `[2H]C([2H])([2H])N1CCCOCC2(C(F)(F)F)CCN(CC2)c2cc(S(=O)(=O)NCCO)ccc2C(=O)Nc2cccc1n2` [EX70], 10 to 100 nM; as for `O=C1Nc2cccc(n2)N(C2CC2)CCCOCC2(C(F)(F)F)CCN(CC2)c2cc(NS(=O)(=O)CCO)ccc21` [EX71], 10 to 100 nM. For `CN1CCCOCC2(C(F)(F)F)CCN(CC2)c2cc(NS(=O)(=O)CCO)ccc2C(=O)Nc2cncc1n2` [EX75], the IC50 (Homo sapiens, OVCAR-3, 144 h) is 100 to 1000 nM.

Molecule `C[C@H]1CNc2nc(ccc2F)NC(=O)c2ccc(NS(=O)(=O)CCO)cc2N2CCC(C(F)(F)F)(CC2)COC1` [EX76-A] gave an IC50 (Homo sapiens, OVCAR-3, 144 h) of less than 10 nM. Take `C[C@@H]1CNc2nc(ccc2F)NC(=O)c2ccc(NS(=O)(=O)CCO)cc2N2CCC(C(F)(F)F)(CC2)COC1` [EX76-B]: the IC50 (Homo sapiens, OVCAR-3, 144 h) is 10 to 100 nM. The same measure, in the same setting: as for `C/C1=C/CNc2cccc(n2)NC(=O)c2ccc(NS(=O)(=O)CCO)cc2N2CCC(C(F)(F)F)(CC2)COC1` [EX77], the figure is 100 to 1000 nM; as for `CO[C@@H]1CNc2cccc(n2)NC(=O)c2ccc(NS(=O)(=O)CCO)cc2N2CCC(C(F)(F)F)(CC2)COC1` [EX78-A], 10 to 100 nM. `CO[C@H]1CNc2cccc(n2)NC(=O)c2ccc(NS(=O)(=O)CCO)cc2N2CCC(C(F)(F)F)(CC2)COC1` [EX78-B] returned an IC50 (Homo sapiens, OVCAR-3, 144 h) of less than 10 nM. For the setting “Homo sapiens, OVCAR-3, 144 h”, `C[C@@H]1CCCC2(C(F)(F)F)CCN(CC2)c2cc(NS(=O)(=O)CCO)ccc2C(=O)Nc2cccc(n2)NC1` [EX79-A] registered an IC50 of 10 to 100 nM. Same read-out and setting: as for `C[C@H]1CCCC2(C(F)(F)F)CCN(CC2)c2cc(NS(=O)(=O)CCO)ccc2C(=O)Nc2cccc(n2)NC1` [EX79-B], the figure is less than 10 nM; as for `CN1CCC2(C(F)(F)F)CCN(CC2)c2cc(NS(=O)(=O)CCO)ccc2C(=O)Nc2cccc(n2)NCC1=O` [EX80], 1000 to 10000 nM. Same read-out and setting: under `O=C1Nc2cccc(n2)N2CCO[C@H](COCC3(C(F)(F)F)CCN(CC3)c3cc(NS(=O)(=O)CCO)ccc31)C2` [EX81-B] stands 10 to 100 nM; under `O=C1Nc2cccc(n2)NCCC/C=C/C2(C(F)(F)F)CCN(CC2)c2cc(NS(=O)(=O)CCO)ccc21` [EX83], 10 to 100 nM; under `C[C@H]1COCC2(C(F)(F)F)CCN(CC2)c2cc(NS(=O)(=O)CCO)ccc2C(=O)Nc2cccc(n2)CO1` [EX84-A], 10 to 100 nM. Still for that read-out and setting: as for `C[C@@H]1COCC2(C(F)(F)F)CCN(CC2)c2cc(NS(=O)(=O)CCO)ccc2C(=O)Nc2cccc(n2)CO1` [EX84-B], the figure is 10 to 100 nM; as for `C[C@@H]1C/C=C/C2(C(F)(F)F)CCN(CC2)c2cc(NS(=O)(=O)CCO)ccc2C(=O)Nc2cccc(n2)NC1` [EX85-A], 10 to 100 nM; as for `C[C@H]1C/C=C/C2(C(F)(F)F)CCN(CC2)c2cc(NS(=O)(=O)CCO)ccc2C(=O)Nc2cccc(n2)NC1` [EX85-B], less than 10 nM. In turn, `CN1CCCOCC2(C(F)(F)F)CCN(CC2)c2cc(NS(=O)(=O)CCO)cnc2C(=O)Nc2cccc1n2` [EX86] yielded an IC50 (Homo sapiens, OVCAR-3, 144 h) of 10 to 100 nM. On the same count and under the same terms, under `CN1CCCOCC2(C(F)(F)F)CCN(CC2)c2cc(NS(=O)(=O)CCO)ccc2C(=O)Nc2nccc1n2` [EX87] stands 1000 to 10000 nM.

In general, IC50 refers to the point on the concentration scale where inhibition reaches its midpoint. Low readings indicate higher potency, high ones lower potency.
